Biological target: PAR4 (Homo sapiens (Human), UniProt Q96RI0)
Assay: FLIPR assay in PAR4-expressing HEK293 cells (PAR4 antagonist activity)
Format: cell-based
Details: inhibition of H-Ala-Phe(4-F)-Pro-Gly-Trp-Leu-Val-Lys-Asn-Gly-NH2-induced intracellular calcium mobilization
Text: The FLIPR assay is an exemplary in vitro assay for measuring the activity of the PAR4 antagonists of the present invention. In this assay, intracellular calcium mobilization is induced in PAR4 expressing cells by a PAR4 agonist and calcium mobilization is monitored. See, e.g., Example A.
HEK293 cells stably expressing PAR4 were generated by a standard method of transfection of human PAR4 (F2R23) cDNA expression vector and selected based on PAR4 protein expression or mRNA expression. […] These cells also express endogenous PAR1 and can elicit calcium signal upon stimulation with PAR1 agonist peptide. Therefore, the same cells were also used to determine selectivity against PAR1 and agonist activity for both receptors. Cells from HEK293 PAR4 Clone 1.2A (BMS Arctic ID 383940) were propagated and used for calcium mobilization studies.
FLIPR-based calcium mobilization assay in HEK293 cells was used to measure PAR4 antagonism, agonism, and selectivity against PAR1. The activity of the PAR4 antagonists of the present invention were tested in PAR4 expressing cells by monitoring H-Ala-Phe(4-F)-[…]NH2-induced intracellular calcium mobilization. Counter screens for agonist activity and PAR1 antagonist activity were also performed. Briefly, PAR1/PAR4-expressing HEK293 cells were grown in DMEM (Life Technology, Grand Island, N.Y.) containing 10% heat-inactivated FBS, 1% Penicillin-Streptomycin, 10 μg/mL blasticidin, and 100 μg/mL Zeocin at 37° C. with 5% CO2. Cells were plated overnight prior to the experiment in a black 384-well Purecoat Amine clear bottom plate (Becton Dickinson Biosciences, San Jose, Calif.) at 10,000 cells/well in 30 μL growth medium and incubated in a humidified chamber at 37° C. with 5% CO2 overnight. Prior to compound addition, the cell medium was replaced with […] of 1× calcium and magnesium-containing Hank's Balanced Saline Solution (HBSS) (with 20 mM HEPES) and 1:1000 diluted fluorescent calcium indicator (Codex Biosolutions, Gaithersburg, Md.). After a 30 minute incubation period at 37° C. and a further 30 minute incubation and equilibration period at room temperature, 20 μL test compound (diluted in 1× HBSS buffer) was added at various concentrations at 0.17% dimethyl sulfoxide (DMSO) final concentration. Changes in fluorescence intensity were measured using a Functional Drug Screening System (FDSS, Hamamatsu, Japan) to determine agonist activities. The cells were then incubated for 30 minutes at room temperature followed by addition of 20 μL of agonist peptide for antagonist activity measurement. […] Compound potency was derived from 11-point concentration-response curves.
The following Table sets out results obtained employing various compounds of the invention tested in the FLIPR assay. As indicated above, the FLIPR assay, an in vitro assay, measures the PAR4 antagonist activity of compounds tested as described in Example A.

Sequence of PAR4 (Q96RI0 18-385): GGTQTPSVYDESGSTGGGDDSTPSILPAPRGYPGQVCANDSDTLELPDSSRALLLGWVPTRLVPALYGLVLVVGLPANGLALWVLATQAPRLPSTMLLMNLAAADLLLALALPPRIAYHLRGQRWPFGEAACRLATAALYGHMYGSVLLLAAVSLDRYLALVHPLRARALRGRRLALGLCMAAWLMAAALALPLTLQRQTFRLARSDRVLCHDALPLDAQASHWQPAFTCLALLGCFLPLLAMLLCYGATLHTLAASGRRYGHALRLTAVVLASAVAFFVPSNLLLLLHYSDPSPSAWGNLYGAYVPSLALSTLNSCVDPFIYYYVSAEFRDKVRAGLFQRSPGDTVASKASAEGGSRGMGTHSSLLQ

Structure (SMILES)	EC50 [nM]
COc1cc(OCc2cccc(NS(=O)(=O)c3ccccc3)c2)c2cc(-c3cn4nc(OC)sc4n3)oc2c1 [Example 7, N-(3-(((6-methoxy-2-(2-methoxyimidazo[2,1-b][1,3,4]thiadiazol-6-yl)benzofuran-4-yl)oxy)methyl)phenyl)benzenesulfonamide]	10
COc1cc(OCc2cccc(NC(=O)c3ccco3)c2)c2cc(-c3cn4nc(OC)sc4n3)oc2c1 [Example 134]	5
COc1cc(OCc2cccc(NC(=O)c3ccc(F)cc3F)c2)c2cc(-c3cn4nc(OC)sc4n3)oc2c1 [Example 152]	1.3
COc1cc(OCc2cccc(NC(=O)c3ccccc3OC)c2)c2cc(-c3cn4nc(OC)sc4n3)oc2c1 [Example 29]	1.1
COc1cc(OCc2cccc(NC(=O)c3cccc(Br)c3)c2)c2cc(-c3cn4nc(OC)sc4n3)oc2c1 [Example 10]	1.9
COc1ccc(C(=O)Nc2cccc(COc3cc(OC)cc4oc(-c5cn6nc(OC)sc6n5)cc34)c2)c(OC)c1 [Example 42]	2.3
COc1cc(OCc2ccc3c(c2)N(C(C)=O)CC3)c2cc(-c3cn4nc(OC)sc4n3)oc2c1 [Example 107]	26
COc1cc(OCc2cccc(NC(=O)c3cc(F)cc(C(F)(F)F)c3)c2)c2cc(-c3cn4nc(OC)sc4n3)oc2c1 [Example 142]	1.3
COc1cc(OCc2cccc3c2CCN3C(=O)c2ccc(C)cc2)c2cc(-c3cn4nc(OC)sc4n3)oc2c1 [Example 123]	5
COc1cc(OCc2cccc(N(C)C(=O)c3ccccc3F)c2)c2cc(-c3cn4nc(OC)sc4n3)oc2c1 [Example 88]	3.3
COc1cc(OCc2cccc(NC(=O)c3ccc4c(c3)OCO4)c2)c2cc(-c3cn4nc(OC)sc4n3)oc2c1 [Example 22]	1.1
COc1cc(OCc2ccc3c(c2)N(C(=O)c2ccc(OC)nc2)CC3)c2cc(-c3cn4nc(OC)sc4n3)oc2c1 [Example 106]	1.5
COc1cc(OCc2cccc(NC(=O)c3cccnc3F)c2)c2cc(-c3cn4nc(OC)sc4n3)oc2c1 [Example 61]	1.5
COc1cc(Cl)cc(C(=O)Nc2cccc(COc3cc(OC)cc4oc(-c5cn6nc(OC)sc6n5)cc34)c2)c1 [Example 63]	1.4
COc1cc(OCc2cccc(N(C)C(=O)c3cncnc3)c2)c2cc(-c3cn4nc(OC)sc4n3)oc2c1 [Example 92]	3.5
COc1cc(OCc2cccc(NC(=O)c3csc(-c4ccc(F)cc4)n3)c2)c2cc(-c3cn4nc(OC)sc4n3)oc2c1 [Example 77]	120
COc1cc(OCc2ccc3c(c2)N(C(=O)c2cccc(F)c2)CC3)c2cc(-c3cn4nc(OC)sc4n3)oc2c1 [Example 102]	4.1
COc1cc(OCc2cccc(NC(=O)c3ccc(F)cc3C(F)(F)F)c2)c2cc(-c3cn4nc(OC)sc4n3)oc2c1 [Example 141]	1.9
COc1cc(OCc2cccc(NC(=O)c3ccc(F)cc3)c2)c2cc(-c3cn4nc(OC)sc4n3)oc2c1 [Example 2, 4-Fluoro-N-(3-(((6-methoxy-2-(2-methoxyimidazo[2,1-b][1,3,4]thiadiazol-6-yl)benzofuran-4-yl)oxy)methyl)phenyl)benzamide]	1
COc1cc(OCc2cccc(NC(=O)c3ccc(Cl)nc3)c2)c2cc(-c3cn4nc(OC)sc4n3)oc2c1 [Example 53]	3.5
COc1cc(OCc2cccc(NC(=O)c3ccc(Br)cn3)c2)c2cc(-c3cn4nc(OC)sc4n3)oc2c1 [Example 65]	1.1
COc1cc(OCc2cccc3c2CCN3C(=O)c2cc(C)cc(C(F)(F)F)c2)c2cc(-c3cn4nc(OC)sc4n3)oc2c1 [Example 125]	3.9
COc1cc(OCc2cccc(N(C)C(=O)OC(C)(C)C)c2)c2cc(-c3cn4nc(OC)sc4n3)oc2c1 [Example 81, tert-Butyl (3-(((6-methoxy-2-(2-methoxyimidazo[2,1-b][1,3,4]thiadiazol-6-yl)benzofuran-4-yl)oxy)methyl)phenyl)(methyl)carbamate]	4.8
COc1cc(OCc2cccc(NC(=O)OC(C)(C)C)c2)c2cc(-c3cn4nc(OC)sc4n3)oc2c1 [Example 3, tert-Butyl (3-(((6-methoxy-2-(2-methoxyimidazo[2,1-b][1,3,4]thiadiazol-6-yl)benzofuran-4-yl)oxy)methyl)phenyl)carbamate]	2.6
COc1cc(OCc2ccc3c(c2)N(C(=O)c2cc(C)cc(C(F)(F)F)c2)CC3)c2cc(-c3cn4nc(OC)sc4n3)oc2c1 [Example 111]	6
COc1cc(OCc2cccc(NC(=O)c3cc(F)cc(F)c3)c2)c2cc(-c3cn4nc(OC)sc4n3)oc2c1 [Example 159]	1.6

Structure (SMILES)	EC50 [nM]
COc1cc(OCc2cccc(N(C)C(=O)c3sc(C)nc3C)c2)c2cc(-c3cn4nc(OC)sc4n3)oc2c1 [Example 93]	4.8
COc1cc(OCc2cccc(NC(=O)c3ccc(C)nc3O)c2)c2cc(-c3cn4nc(OC)sc4n3)oc2c1 [Example 73]	3.6
COc1cc(OCc2cccc(NC(=O)c3ccc([N+](=O)[O-])cc3)c2)c2cc(-c3cn4nc(OC)sc4n3)oc2c1 [Example 33]	1.8
COc1cc(OCc2cccc(N(C)C=O)c2)c2cc(-c3cn4nc(OC)sc4n3)oc2c1 [Example 97]	2.5
COc1cc(OCc2cccc(NC(=O)c3cccc4ccccc34)c2)c2cc(-c3cn4nc(OC)sc4n3)oc2c1 [Example 15]	1.7
COc1cc(OCc2cccc(NC(=O)c3cc(Cl)cc(Cl)c3)c2)c2cc(-c3cn4nc(OC)sc4n3)oc2c1 [Example 19]	3.3
COc1cc(OCc2cccc(N(C)C(=O)c3ccc(F)cc3)c2)c2cc(-c3cn4nc(OC)sc4n3)oc2c1 [Example 87]	5.7
COc1cc(OCc2cccc(NC(=O)c3ccc(C)cc3)c2)c2cc(-c3cn4nc(OC)sc4n3)oc2c1 [Example 32]	1.6
COc1cc(OCc2cccc(NC(=O)c3ccc(C)c(F)c3)c2)c2cc(-c3cn4nc(OC)sc4n3)oc2c1 [Example 163]	2.1
COc1cc(OCc2cccc(NC(=O)c3cc(Cl)cc(OCc4ccccc4)c3)c2)c2cc(-c3cn4nc(OC)sc4n3)oc2c1 [Example 67]	680
COc1cc(OCc2cccc(NC(=O)CC3CCCC3)c2)c2cc(-c3cn4nc(OC)sc4n3)oc2c1 [Example 138]	2.5
COc1cc(OCc2cccc(N(C)C(=O)c3ccccc3C)c2)c2cc(-c3cn4nc(OC)sc4n3)oc2c1 [Example 84]	2.5
COc1cc(OCc2cccc(NC(=O)c3ccccc3I)c2)c2cc(-c3cn4nc(OC)sc4n3)oc2c1 [Example 24]	1.4
COc1cc(OCc2cccc3c2CCN3C(=O)c2ccccc2F)c2cc(-c3cn4nc(OC)sc4n3)oc2c1 [Example 120]	4.2
COc1cc(OCc2cccc(NC(=O)c3cccc(F)c3)c2)c2cc(-c3cn4nc(OC)sc4n3)oc2c1 [Example 28]	2
COc1cc(OCc2cccc(N(C)C(=O)c3ccccc3OC)c2)c2cc(-c3cn4nc(OC)sc4n3)oc2c1 [Example 86]	1.8
COc1cc(OCc2cccc(NC(=O)c3c(F)cccc3F)c2)c2cc(-c3cn4nc(OC)sc4n3)oc2c1 [Example 143]	5.9
COc1cc(OCc2cccc(NC(=O)c3ccccc3Cl)c2)c2cc(-c3cn4nc(OC)sc4n3)oc2c1 [Example 25]	1.7
COc1cc(OCc2cccc(NC(=O)c3cnc(-c4ccccc4)nc3C)c2)c2cc(-c3cn4nc(OC)sc4n3)oc2c1 [Example 66]	5.7
COc1cc(OCc2cccc(NC(=O)C(C)C)c2)c2cc(-c3cn4nc(OC)sc4n3)oc2c1 [Example 136]	3.9
COc1cc(OCc2cccc(NC(=O)c3cc(F)ccc3F)c2)c2cc(-c3cn4nc(OC)sc4n3)oc2c1 [Example 154]	2.2
COc1cc(OCc2cccc(NC(=O)Cc3nc(C)sc3C)c2)c2cc(-c3cn4nc(OC)sc4n3)oc2c1 [Example 49]	0.85
COc1cc(OCc2cccc(NC(=O)c3ccc(I)cc3)c2)c2cc(-c3cn4nc(OC)sc4n3)oc2c1 [Example 39]	2.4
COc1cc(OCc2cccc(NC(=O)c3c(F)cccc3C(F)(F)F)c2)c2cc(-c3cn4nc(OC)sc4n3)oc2c1 [Example 147]	1.6
COc1cc(OCc2cccc(NC(=O)c3ccccc3C(F)(F)F)c2)c2cc(-c3cn4nc(OC)sc4n3)oc2c1 [Example 13]	1.9
COc1cc(OCc2cccc(NC(=O)c3cnccn3)c2)c2cc(-c3cn4nc(OC)sc4n3)oc2c1 [Example 133]	2.7

From patent US10214544B2, “Imidazopyridazine and imidazothiadiazole compounds” (Universite de Montreal, priority 2015, dated 2019)
